What was measured:
[1] = tested on: cotton aphid (Aphis gossypii); experiment: Test Example 1: foliar spray on cucumber seedlings infested with cotton aphid, controlling value; type: in vivo; details: 120 h, spray 10 mL/seedling on cucumber, 5 days after spraying, 25° C.
From the text: Controlling value (%)={1−(Cb×Tai)/(Cai×Tb)}×100 wherein the symbols in the formula represent the following meanings. Cb: Number of the test insects in untreated group; Cai: Number of the surviving insects at the time of the investigation in untreated group; Tb: Number of the test insects in treated group; Tai: Number of the surviving insects at the time of the investigation in treated group; Here the “untreated group” represents a group where a similar treatment procedure to that of the treated group except not using each test compound is done.

[2] = tested on: housefly (Musca domestica); experiment: whole plant or invertebrate; type: in vivo; details: 24 h, read-out: mortality of insects
Procedure: A bottom of a plastic cup having a diameter of 5.5 cm is lined with the same size of a filter paper, and each of the diluted solutions (0.7 mL) is added dropwise on the filter paper, and sucrose (30 mg) is homogeneously placed into the plastic cup as a bait.

| SMILES | pest or weed control at 500 ppm [1] [%] | pest or weed control at 200 ppm [1] [%] | mortality at 500 ppm [2] [%] |
| --- | --- | --- | --- |
| CCS(=O)(=O)c1cc(N)ccc1-c1ccc(OCC(F)(F)C(F)(F)F)cn1 [Present compound 53] | ≥ 90 | – | – |
| CCSc1cc(C#N)ccc1-c1ccc(OCC(F)(F)C(F)(F)F)cn1 [Present compound 59] | ≥ 90 | ≥ 90 | – |
| CCS(=O)(=O)c1cc(C#N)ccc1-c1ccc(OCC(F)(F)C(F)(F)F)cn1 [Present compound 60] | ≥ 90 | ≥ 90 | – |
| CCS(=O)(=O)c1cc(C(=O)O)ccc1-c1ccc(OCC(F)(F)C(F)(F)F)cn1 [Present compound 61] | ≥ 90 | ≥ 90 | – |
| CCS(=O)(=O)c1ccc(N)cc1-c1ccc(OCC(F)(F)C(F)(F)F)cn1 [Present compound 62] | ≥ 90 | ≥ 90 | – |
| CCS(=O)(=O)c1cc(NC(=O)C2CC2)ccc1-c1ccc(OCC(F)(F)C(F)(F)F)cn1 [Present compound 63] | ≥ 90 | – | – |
| CCS(=O)(=O)c1cc(-n2cncn2)ccc1-c1ccc(OCC(F)(F)C(F)(F)F)cn1 [Present compound 67] | ≥ 90 | ≥ 90 | ≥ 100 |
| CCS(=O)(=O)c1cc(-c2ccccn2)ccc1-c1ccc(OCC(F)(F)C(F)(F)F)cn1 [Present compound 68] | ≥ 90 | ≥ 90 | – |
